Source: patent US11890279B2, “Quinolines that modulate SERCA and their use for treating disease” (Neurodon Corporation, priority 2020, dated 2024)

Assays:
CSM14.1 cells = experiment: ER stress cell survival assay (thapsigargin); format: cell-based; settings: for Cell Survival: compound 2 μM, about 15 μM thapsigargin, CSM14.1 cells; for EC50: dose-response;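 as to cell survival: survival read as CellTiter-Glo luminescence after overnight incubation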
Procedure: ER Stress Cell Survival Assay
CSM14.1 cells were maintained in Complete Medium at 32° C.; wherein the Complete Medium contained Dulbecco's modified eagle medium (DMEM) with 10% fetal bovine serum (FSB), 1% L-glutamine, 100 IU/mL penicillin, and 100 μg/mL streptomycin. The cells were recovered from cultures by trypsinization and then seeded in 384 well plates (Greiner #781098) at a concentration of 1,000 cells/well in 20 μL of DMEM Assay Medium, wherein the DMEM Assay Medium contained 2% FBS, 100 IU/mL penicillin, and 100 μg/mL streptomycin. Seeding was performed using a MultiDrop Combi reagent broadcaster. The plates were incubated overnight at 32° C.
A test compound was prepared by 2-fold serial dilution in 100% DMSO using a BIOMEK® 2000 liquid handler (Beckman Coulter). A dose-response curve containing 10 concentrations of the test compound was obtained. Using a BIOMEK® FX liquid handler (Beckman Coulter), 2.5 μL of the test compound was transferred from the 100% DMSO serial dilution plate to an intermediate plate containing 47.5 μL of DMEM Assay Medium containing 2% FBS, 100 IU/mL penicillin, and 100 μg/mL streptomycin and mixed. To reduce or eliminate the interference from the compound's precipitation, 6 μL of the diluted compound was immediately transferred to the assay plate to achieve a high compound concentration of 100 μM in 99% DMEM Assay Medium and 1% DMSO. After the assay plates were incubated for 2 hrs, 4 μL of 112.5 μM thapsigargin (TG) (DMSO stock diluted into Assay TC Medium) was dispensed into each testing well with a MultiDrop Combi reagent broadcaster for a final concentration of about 15 μM TG. The tissue culture media (4 μL) containing vehicle only was transferred manually to each control cell using a 16 channel electronic pipette. […] High luminescence indicates cell survival.
Alternatively, a test compound was tested at a single compound concentration (e.g., 2 μM) to determine the effect of the compound on cell survival in comparison with vehicle.

SERCA (SR vesicles) = experiment: Activation of SERCA, increase in Vmax; format: biochemical
Procedure: Test compounds were characterized over a range of concentrations using an NADH-linked, enzyme-coupled ATPase assay. Each well contained 2 mg or 7 mg of SR vesicles (optimized for skeletal or cardiac SR, respectively), 50 mM MOPS (pH 7.0), 100 mM KCl, 5 mM MgCl2, 1 mM EGTA, 0.2 mM NADH, 1 mM phosphoenol pyruvate, 5 IU pyruvate kinase, 5 IU lactate dehydrogenase, and 3.5 mg/mL A23187 (a calcium ionophore), and CaCl2 was added to set free [Ca2+] to the specific values. The assay was started upon addition of ATP at a final concentration of 5 mM, and read in a SpectraMax Plus microplate spectrophotometer and the ATPase activities were fitted using the Hill function.

HEK293 cells = experiment: Protection against thapsigargin (TG)-induced cell death, HEK293; format: cell-based, human; settings: compound 20 μM; thapsigargin 15 μM; 24 hrs
Procedure: (§1) Protection against Thapsigargin (TG)-induced Cell-death. Human embryonic kidney (HEK293) cells were grown in Dulbecco's Modified Eagle's Medium (DMEM) with 10% FBS and 1% antibiotic antimycotic solution (ABAM). Mouse neuroblastoma (N2a) cells were grown in 1:1 DMEM:OPTI-MEM® with 5% FBS and 1% ABAM. All cells were grown in 10% CO2 in a humidified environment of the incubator. Cells grown in 96-well plates were exposed to a test compound (20 μM) for 2 hrs before addition of thapsigargin (15 μM for HEK293 cells and 1 μM for N2a cells) to induce ER stress. After incubation in cell-culture incubator for 24 hrs, ALAMARBLUE® regent (10% v/v) was added to the wells. Fluorescence reading was taken 2 hrs after the addition of the ALAMARBLUE® regent. Cell-viability was calculated as a percentage of relative fluorescence unit (RFU) compared to control.
(§2) The results are summarized in Table 2, where A represents a value greater than 50% cell rescue, B represents a value between 10% to 50% cell rescue, C represents a value between 1% to 10% cell rescue, and D represents a value no greater than 1% cell rescue.

N2a cells [1] = experiment: Protection against thapsigargin (TG)-induced cell death, N2a; format: cell-based, mouse; settings: compound 20 μM; thapsigargin 1 μM; 24 hrs
Procedure: as §1, §2

N2a cells [2] = experiment: Protection against hydrogen peroxide-induced cell death, N2a; format: cell-based, mouse; settings: compound 40 μM; hydrogen peroxide 200 μM
Procedure: Protection against Hydrogen Peroxide-induced Cell-death. N2a cells grown in 96-well plates were exposed to a test compound (40 μM) for 2 hrs before addition of hydrogen peroxide (200 μM). After 40 min of incubation with hydrogen peroxide, ALAMARBLUE® regent (10% v/v) was added to the wells. Fluorescence reading was taken 2 hrs after the addition of the ALAMARBLUE® regent. Cell-viability was calculated as a percentage of relative fluorescence unit (RFU) compared to control.
as §2

[3] = Pharmacokinetics in CD-1 mice; format: in vivo, mouse; settings: CD-1 mice; for F: 10 mg/kg P.O. vs 2 mg/kg i.v.; for AUC / Cmax / half-life: mouse, plasma, 2 mg/kg i.v. or 10 mg/kg P.O.
Procedure: Pharmacokinetics of test compounds were assessed in CD-1 mice. The compounds were formulated at 1 mg/mL in DMSO/Tween 80/water (10/10/80, vol/vol/vol) and dosed at 2 mg/kg intravenous (i.v.) or 10 mg/kg by oral gavage (P.O.) in triplicate. Blood was drawn at 0.25 h, 0.5 h, 1 hr, 2 hrs, 4 hrs, 8 hrs, and 24 hrs into EDTA containing tubes and plasma was harvested by centrifugation. Plasma (10 μL) containing 50% acetonitrile in water (5 μL) was added to 200 μL of ACN containing an internal standard. The samples were vortexed for 30 s. After centrifugation at […] and 4,000 rpm for 15 min, the supernatant was diluted 3 times with water. Then, 20 μL of diluted supernatant was injected into the LC/MS/MS system for quantitative analysis. The samples were injected onto an Agilent ZORBAX XDB-Phenyl 5μ column (50×2.10 mm). Mobile Phase A was water with 0.1% formic acid. Mobile Phase B was acetonitrile with 0.1% formic acid. Separation was achieved using a gradient of 70% A/30% B to 0% A/100% B over 2.10 min. A Shimadzu LCMS-8050 equipped with a turbo ion spray source was used for all analytical measurements. A positive ion MRM method was developed. Peak areas of the product ion were measured against the peak areas of the internal standard. Data was fit using WinNonLin (Pharsight Corporation, Mountain View, CA).

SMILES | Increase in Vmax at 10 μM (SERCA (SR vesicles)) | N2a Cells (TG-induced) cell rescue (N2a cells [1]) | N2a Cells (H2O2-induced) cell rescue (N2a cells [2]) | also measured
Cc1ccc2cccc(NC(=O)c3ccc(C(C)(C)C)cc3)c2n1 [Compound A4, 4-(tert-Butyl)-N-(2-methylquinolin-8-yl)benzamide] | B′ (B′ represents an increase between 20 to 50%) | – | – | Cell Survival (CSM14.1 cells): D (D represents a value no greater than 1%); EC50 (CSM14.1 cells): > 100 µM
O=C(Nc1cccc2cccnc12)c1cccc(F)c1 [Compound A7, 3-Fluoro-N-(quinolin-8-yl)benzamide] | B′ (B′ represents an increase between 20 to 50%) | – | – | –
COc1ccccc1C(=O)Nc1cccc2ccc(C)nc12 [Compound A9, 2-Methoxy-N-(2-methylquinolin-8-yl)benzamide] | – | A (A represents a value greater than 50% cell rescue) | B (B represents a value between 10% to 50% cell rescue) | HEK293 Cells (TG-induced) cell rescue (HEK293 cells): A (A represents a value greater than 50% cell rescue)
CCOc1ccccc1C(=O)Nc1cccc2ccc(C)nc12 [Compound A10, 2-Ethoxy-N-(2-methylquinolin-8-yl)benzamide] | C′ (C′ represents an increase no greater than 20%) | – | – | –
CC(C)Oc1ccc(C(=O)Nc2cccc3cccnc23)cc1 [Compound A11, 4-Isopropoxy-N-(quinolin-8-yl)benzamide] | A′ (A′ represents an increase greater than 50%) | – | – | –
COc1ccc(CCC(=O)Nc2cccc3ccc(C)nc23)cc1 [Compound A23, 3-(4-Methoxyphenyl)-N-(2-methylquinolin-8-yl)propanamide] | A′ (A′ represents an increase greater than 50%) | – | – | –
Cc1ccc2cccc(NC(=O)c3cc4ccccc4o3)c2n1 [Compound A27, N-(2-Methylquinolin-8-yl)benzofuran-2-carboxamide] | A′ (A′ represents an increase greater than 50%) | – | A (A represents a value greater than 50% cell rescue) | EC50 (CSM14.1 cells): < 20 µM
Cc1ccc2cccc(NC(=O)c3ccc(Br)s3)c2n1 [Compound B1, 5-Bromo-N-(2-methylquinolin-8-yl)thiophene-2-carboxamide] | B′ (B′ represents an increase between 20 to 50%) | B (B represents a value between 10% to 50% cell rescue) | A (A represents a value greater than 50% cell rescue) | F [3]: 2.9%; AUC [3]: 21 ng·h/mL; Cmax [3]: 80 nM; half-life [3]: 42 min
Cc1ccc2cccc(NC(=O)c3cc4ccccc4s3)c2n1 [Compound B2, N-(2-Methylquinolin-8-yl)benzo[b]thiophene-2-carboxamide] | A′ (A′ represents an increase greater than 50%) | A (A represents a value greater than 50% cell rescue) | B (B represents a value between 10% to 50% cell rescue) | –
CCSc1ccc(C(=O)Nc2cccc3ccc(C)nc23)cc1 [Compound C22, 4-(Ethylthio)-N-(2-methylquinolin-8-yl)benzamide] | – | – | – | Cell Survival (CSM14.1 cells): D (D represents a value no greater than 1%)
CC(C)Oc1ccc(C(=O)Nc2cccc3ccc(C(=O)O)nc23)cc1 [Compound E1, 8-(4-Isopropoxybenzamido)quinoline-2-carboxylic Acid] | – | A (A represents a value greater than 50% cell rescue) | – | –
CC(C)Oc1cccc(C(=O)Nc2cccc3ccc(C(=O)O)nc23)c1 [Compound E2, 8-(3-Isopropoxybenzamido)quinoline-2-carboxylic acid] | – | A (A represents a value greater than 50% cell rescue) | – | –
O=C(O)c1ccc2cccc(NC(=O)c3ccc(Br)s3)c2n1 [Compound E3, 8-(5-Bromothiophene-2-carboxamido)quinoline-2-carboxylic Acid] | – | A (A represents a value greater than 50% cell rescue) | – | –
O=C(O)c1ccc2cccc(NC(=O)c3cc4ccccc4s3)c2n1 [Compound E4, 8-(Benzo[b]thiophene-2-carboxamido)quinoline-2-carboxylic Acid] | – | B (B represents a value between 10% to 50% cell rescue) | – | –
Cc1cc(C)n(-c2ccc3cccc(NC(=O)c4cccc(OC(C)C)c4)c3n2)n1 [Compound F1, N-(2-(3,5-Dimethyl-1H-pyrazol-1-yl)quinolin-8-yl)-3-isopropoxybenzamide] | – | A (A represents a value greater than 50% cell rescue) | – | –
Cc1cc(C)n(-c2ccc3cccc(NC(=O)c4ccc(OC(C)C)cc4)c3n2)n1 [Compound F2, N-(2-(3,5-Dimethyl-1H-pyrazol-1-yl)quinolin-8-yl)-4-isopropoxybenzamide] | – | A (A represents a value greater than 50% cell rescue) | – | –
Cc1cc(C)n(-c2ccc3cccc(NC(=O)c4ccc(Br)s4)c3n2)n1 [Compound F3, 5-Bromo-N-(2-(3,5-dimethyl-1H-pyrazol-1-yl)quinolin-8-yl)thiophene-2-carboxamide] | – | A (A represents a value greater than 50% cell rescue) | – | –
Cc1cc(C)n(-c2ccc3cccc(NC(=O)c4cc5ccccc5s4)c3n2)n1 [Compound F4, N-(2-(3,5-Dimethyl-1H-pyrazol-1-yl)quinolin-8-yl)benzo[b]thiophene-2-carboxamide] | – | B (B represents a value between 10% to 50% cell rescue) | – | –
Cc1ccc2cccc(NC(=O)c3ccc(C)s3)c2n1 [Compound G2, 5-Methyl-N-(2-methylquinolin-8-yl)thiophene-2-carboxamide] | A′ (A′ represents an increase greater than 50%) | – | A (A represents a value greater than 50% cell rescue) | EC50 (CSM14.1 cells): < 20 µM; F [3]: 0.85%; AUC [3]: 4.5 ng·h/mL; Cmax [3]: 20 nM; half-life [3]: 33.6 min
Cc1ccc2cccc(NC(=O)c3sc(Br)cc3Br)c2n1 [Compound G6, 3,5-Dibromo-N-(2-methylquinolin-8-yl)thiophene-2-carboxamide] | C′ (C′ represents an increase no greater than 20%) | – | A (A represents a value greater than 50% cell rescue) | EC50 (CSM14.1 cells): < 20 µM
Cc1ccc2cccc(NC(=O)c3cc(Br)c(Br)s3)c2n1 [Compound G7, 4,5-Dibromo-N-(2-methylquinolin-8-yl)thiophene-2-carboxamide] | A′ (A′ represents an increase greater than 50%) | – | A (A represents a value greater than 50% cell rescue) | EC50 (CSM14.1 cells): < 20 µM
